The text below walks through data of ChEMBL document CHEMBL4340534 (Bioorg Med Chem Lett, 2019).

In general, MIC refers to the least concentration at which growth counts as inhibited. The CC50 is the concentration that lowers cell viability or growth by half. By pIC50 is commonly meant −log10 of the IC50, conventionally taken in molar units.

For series [1], the system named is Escherichia coli. The series can be described thus: Antibacterial activity against tolC deficient Escherichia coli 7623. It is filed as functional.
For series [2], the system named is Escherichia coli. The series can be described thus: Antibacterial activity against tolC deficient Escherichia coli Top10. It is filed as functional.
The test system of a further series is Klebsiella pneumoniae. The series can be described thus: Antibacterial activity against Klebsiella pneumoniae 1161486. Type of series: functional.
Series [3] relates to Escherichia coli. The series is described as follows: Antibacterial activity against tolC deficient Escherichia coli Top10 harboring GyrB E793K mutant. It is filed as functional.
The next series deals with Acinetobacter baumannii. The series can be described thus: Antibacterial activity against Acinetobacter baumannii BM4454. It is filed as functional.
Series [4] has as its system Escherichia coli. The series can be described thus: Antibacterial activity against Escherichia coli 7623. It is filed as functional.
Series [5] is described as follows: Cytotoxicity against mouse L5178Y cells (TK +/-) assessed as reduction in cell viability incubated for 72 hrs by Cell Titer-Glo assay. Background: ATP-based viability assays read luminescence as a measure of living cells.
For another series, the target named is DNA gyrase (Escherichia coli, UniProt P0AES4+P0AES6). The series is described as follows: Inhibition of Escherichia coli his-tagged DNA gyrase supercoiling activity using pBR322 DNA in presence of ATP incubated for 1 hr by H19 dye based high throughput DNA gyrase assay. It is filed as protein-complex assay.
Series [6] has as its target Sodium channel protein type 5 subunit alpha (Homo sapiens, UniProt Q14524). The series is described as follows: Inhibition of human NaV1.5 expressed in HEK293 cells assessed as decrease in sodium current amplitude at -120 mV holding potential by Qpatch assay. It is filed as ADME, cell-based.
Another series concerns Pseudomonas aeruginosa. The series can be described thus: Antibacterial activity against Pseudomonas aeruginosa. Type of series: functional.
In series [7] the target is DNA topoisomerase 2-alpha (Homo sapiens, UniProt P11388). The series is described as follows: Inhibition of human DNA topoisomerase 2 alpha using interlinked kDNA as substrate after 30 mins by ethidium bromide staining-based agarose gel electrophoresis method.
Chain of DNA topoisomerase 2-alpha (P11388 whole entry): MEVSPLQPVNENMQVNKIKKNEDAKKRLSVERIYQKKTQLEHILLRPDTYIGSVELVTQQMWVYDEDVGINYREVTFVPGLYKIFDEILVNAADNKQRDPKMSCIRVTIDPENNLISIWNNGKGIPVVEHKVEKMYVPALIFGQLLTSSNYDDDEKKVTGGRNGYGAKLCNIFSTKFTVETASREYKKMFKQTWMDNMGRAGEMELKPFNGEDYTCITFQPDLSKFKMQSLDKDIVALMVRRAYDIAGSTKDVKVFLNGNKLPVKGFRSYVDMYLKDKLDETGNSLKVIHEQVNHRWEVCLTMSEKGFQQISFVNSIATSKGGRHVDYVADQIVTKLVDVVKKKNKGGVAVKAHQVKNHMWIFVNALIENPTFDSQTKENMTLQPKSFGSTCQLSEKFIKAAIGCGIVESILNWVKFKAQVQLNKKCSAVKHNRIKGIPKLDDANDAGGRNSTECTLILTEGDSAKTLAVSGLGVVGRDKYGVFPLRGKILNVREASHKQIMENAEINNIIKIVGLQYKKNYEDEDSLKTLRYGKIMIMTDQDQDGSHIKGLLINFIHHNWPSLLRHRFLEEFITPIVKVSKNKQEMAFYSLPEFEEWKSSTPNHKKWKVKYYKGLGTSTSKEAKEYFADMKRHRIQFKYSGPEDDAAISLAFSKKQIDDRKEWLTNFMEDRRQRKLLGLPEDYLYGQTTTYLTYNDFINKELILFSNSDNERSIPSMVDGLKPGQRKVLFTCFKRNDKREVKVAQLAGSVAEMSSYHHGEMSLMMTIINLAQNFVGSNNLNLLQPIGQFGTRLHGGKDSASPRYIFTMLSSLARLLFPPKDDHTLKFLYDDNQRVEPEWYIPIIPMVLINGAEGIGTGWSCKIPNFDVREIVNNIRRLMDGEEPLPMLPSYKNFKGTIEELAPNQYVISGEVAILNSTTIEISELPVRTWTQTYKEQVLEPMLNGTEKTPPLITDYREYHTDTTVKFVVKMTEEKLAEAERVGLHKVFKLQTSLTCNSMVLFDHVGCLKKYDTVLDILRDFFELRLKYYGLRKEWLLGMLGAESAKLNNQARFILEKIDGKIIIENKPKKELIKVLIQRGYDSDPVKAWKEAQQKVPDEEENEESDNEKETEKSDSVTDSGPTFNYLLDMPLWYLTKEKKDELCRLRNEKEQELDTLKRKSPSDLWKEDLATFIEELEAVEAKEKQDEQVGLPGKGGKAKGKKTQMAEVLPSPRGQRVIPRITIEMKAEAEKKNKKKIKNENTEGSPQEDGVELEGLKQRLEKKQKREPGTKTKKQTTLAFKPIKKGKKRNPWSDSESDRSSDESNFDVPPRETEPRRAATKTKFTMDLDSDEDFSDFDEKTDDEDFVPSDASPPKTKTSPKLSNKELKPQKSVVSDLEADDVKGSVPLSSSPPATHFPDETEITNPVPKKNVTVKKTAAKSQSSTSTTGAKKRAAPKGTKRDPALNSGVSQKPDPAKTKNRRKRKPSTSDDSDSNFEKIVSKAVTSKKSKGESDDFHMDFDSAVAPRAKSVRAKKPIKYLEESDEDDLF
A short description of series [8]: Inhibition of Escherichia coli DNA topoisomerase 4 using interlinked kDNA as substrate after 30 mins by ethidium bromide staining-based agarose gel electrophoresis method.
The target in series [9] is DNA gyrase (Klebsiella pneumoniae) (UniProt W1DID1+A0A080SQT2). The series is described as follows: Inhibition of Klebsiella pneumoniae DNA gyrase assessed as increase in single and double strand DNA cleavage products. Type of series: protein-complex assay.
Series [10] has as its system Escherichia coli. The series is described as follows: Inhibition of Escherichia coli DNA topoisomerase 4 assessed as induction of enzyme-mediated DNA cleavage breaks.

pIC50: −log10 of the molar value. Converted amounts (≈) assume the structure as drawn. The source made the active and inactive calls. No cut-off for these calls is given here.

Chain of Sodium channel protein type 5 subunit alpha (Q14524 whole entry): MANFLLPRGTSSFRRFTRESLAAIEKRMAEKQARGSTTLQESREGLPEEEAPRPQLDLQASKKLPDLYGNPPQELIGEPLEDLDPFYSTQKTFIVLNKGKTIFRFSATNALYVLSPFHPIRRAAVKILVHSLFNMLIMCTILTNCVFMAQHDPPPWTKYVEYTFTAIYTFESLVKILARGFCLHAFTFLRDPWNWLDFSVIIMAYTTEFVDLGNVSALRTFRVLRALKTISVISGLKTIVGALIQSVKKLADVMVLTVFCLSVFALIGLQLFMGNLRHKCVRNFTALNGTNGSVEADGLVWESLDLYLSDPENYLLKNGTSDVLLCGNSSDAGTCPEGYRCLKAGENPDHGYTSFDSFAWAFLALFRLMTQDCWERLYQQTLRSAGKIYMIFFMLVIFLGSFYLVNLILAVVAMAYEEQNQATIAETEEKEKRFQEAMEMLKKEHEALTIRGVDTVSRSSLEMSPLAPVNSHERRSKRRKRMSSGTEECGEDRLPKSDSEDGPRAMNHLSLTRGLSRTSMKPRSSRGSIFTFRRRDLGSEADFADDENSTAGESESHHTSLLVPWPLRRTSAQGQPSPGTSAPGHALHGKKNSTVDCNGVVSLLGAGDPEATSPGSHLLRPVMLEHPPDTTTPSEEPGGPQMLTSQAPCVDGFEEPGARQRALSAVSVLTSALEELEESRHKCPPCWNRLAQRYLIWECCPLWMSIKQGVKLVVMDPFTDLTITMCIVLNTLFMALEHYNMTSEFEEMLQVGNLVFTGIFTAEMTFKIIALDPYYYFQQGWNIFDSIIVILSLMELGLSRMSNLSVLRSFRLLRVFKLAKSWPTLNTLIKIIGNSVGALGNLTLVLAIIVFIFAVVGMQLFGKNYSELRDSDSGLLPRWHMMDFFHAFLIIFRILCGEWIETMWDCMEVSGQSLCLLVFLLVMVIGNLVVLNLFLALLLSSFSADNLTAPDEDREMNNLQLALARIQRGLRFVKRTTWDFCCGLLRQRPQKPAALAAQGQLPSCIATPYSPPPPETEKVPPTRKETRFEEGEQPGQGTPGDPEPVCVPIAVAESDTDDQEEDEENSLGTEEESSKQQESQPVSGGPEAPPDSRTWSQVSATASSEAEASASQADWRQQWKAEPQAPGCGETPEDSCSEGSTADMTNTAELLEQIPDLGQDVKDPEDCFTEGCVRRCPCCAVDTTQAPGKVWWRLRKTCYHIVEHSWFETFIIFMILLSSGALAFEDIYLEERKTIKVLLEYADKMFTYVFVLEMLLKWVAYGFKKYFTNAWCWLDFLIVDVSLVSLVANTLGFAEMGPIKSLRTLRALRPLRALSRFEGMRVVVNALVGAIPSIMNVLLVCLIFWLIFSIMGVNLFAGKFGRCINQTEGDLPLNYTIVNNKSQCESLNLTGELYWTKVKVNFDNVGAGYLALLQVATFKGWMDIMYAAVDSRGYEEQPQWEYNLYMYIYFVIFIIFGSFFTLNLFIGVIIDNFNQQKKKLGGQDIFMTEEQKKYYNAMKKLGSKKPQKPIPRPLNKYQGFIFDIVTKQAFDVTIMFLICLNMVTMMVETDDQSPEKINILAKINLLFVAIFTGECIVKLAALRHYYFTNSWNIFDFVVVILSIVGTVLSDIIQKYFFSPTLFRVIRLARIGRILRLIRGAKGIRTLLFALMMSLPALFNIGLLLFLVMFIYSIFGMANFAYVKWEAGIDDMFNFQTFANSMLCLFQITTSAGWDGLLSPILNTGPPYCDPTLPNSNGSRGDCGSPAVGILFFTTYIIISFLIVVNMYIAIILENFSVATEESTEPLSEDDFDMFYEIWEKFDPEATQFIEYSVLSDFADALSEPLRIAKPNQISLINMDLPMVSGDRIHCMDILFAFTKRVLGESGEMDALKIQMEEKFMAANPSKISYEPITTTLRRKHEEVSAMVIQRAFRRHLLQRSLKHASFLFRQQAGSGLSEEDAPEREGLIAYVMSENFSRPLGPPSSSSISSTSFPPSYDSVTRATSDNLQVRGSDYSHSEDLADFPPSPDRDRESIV

Consider `NCC(Nc1n[nH]c2ccc(-c3ccccc3Cl)cc12)c1ccccc1` (configuration not stated), for which the MIC against Escherichia coli [1] was determined as 4 µg/mL (≈ 11 µM); in the series on Escherichia coli [2] it was 4 µg/mL (≈ 11 µM); in the series with Klebsiella pneumoniae, 64 µg/mL (≈ 176 µM); in the series with Escherichia coli [3] it was 4 µg/mL (≈ 11 µM); in the series with Acinetobacter baumannii, 64 µg/mL (≈ 176 µM); against Escherichia coli [4] it was 128 µg/mL (≈ 353 µM). Further, the CC50 at 72 h in series [5] (L5178Y cells (TK +/-)) came to 5 µg/mL (≈ 13.8 µM). Further, on DNA gyrase, the pIC50 is 5.49.
Consider `NC[C@H](Nc1nccc2ccc(-c3ccccc3Cl)cc12)c1ccccc1`, for which the MIC in the series with Escherichia coli [1] came to 2 µg/mL (≈ 5.35 µM); against Escherichia coli [2], 2 µg/mL (≈ 5.35 µM); in the series on Klebsiella pneumoniae, 32 µg/mL (≈ 85.6 µM); against Escherichia coli [3], 2 µg/mL (≈ 5.35 µM); with Acinetobacter baumannii, 32 µg/mL (≈ 85.6 µM); in the series with Escherichia coli [4] it was 64 µg/mL (≈ 171 µM). In addition, the CC50 at 72 h in series [5] (L5178Y cells (TK +/-)) was 3 µg/mL (≈ 8.02 µM). Also, the pIC50 at DNA gyrase is 5.00.
Consider `NC[C@@H](c1ccccc1)n1cnc2c(-c3ccccc3Cl)csc2c1=O`, for which the MIC is 2 to 4 µg/mL (≈ 5.24 to 10.5 µM) in the series with Escherichia coli [1]; 2 µg/mL (≈ 5.24 µM) in the series with Escherichia coli [2]; > 128 µg/mL with Klebsiella pneumoniae; 16 µg/mL (≈ 41.9 µM) against Escherichia coli [3]; > 128 µg/mL against Acinetobacter baumannii; > 128 µg/mL with Escherichia coli [4]. For the same molecule, in [5] (L5178Y cells (TK +/-)), the CC50 at 72 h came to 16 µg/mL (≈ 41.9 µM). The pIC50 at DNA gyrase was 5.70.
Regarding `Cc1sc(-c2ccccc2Cl)cc1C(=O)N[C@@H](CN)c1ccccc1`, the MIC is ≤ 0.125 µg/mL against Escherichia coli [1]; ≤ 0.125 µg/mL with Escherichia coli [2]; 32 µg/mL (≈ 86.3 µM) in the series on Klebsiella pneumoniae; 4 µg/mL (≈ 10.8 µM) against Escherichia coli [3]; 4 µg/mL (≈ 10.8 µM) in the series with Acinetobacter baumannii; 8 µg/mL (≈ 21.6 µM) against Escherichia coli [4]. The values for the pIC50 (in series [6]; at DNA gyrase) were 4.89 and 7.40, respectively. The CC50 at 72 h in series [5] (l5178y) is 5 µg/mL (≈ 13.5 µM).
With `NC[C@H](Oc1n[nH]c2ccc(-c3ccccc3Cl)cc12)c1ccccc1`, the MIC against Escherichia coli [1] amounted to 2 µg/mL (≈ 5.5 µM); in the series with Escherichia coli [2], 2 µg/mL (≈ 5.5 µM); against Klebsiella pneumoniae it was 32 µg/mL (≈ 87.9 µM); with Escherichia coli [3], 2 µg/mL (≈ 5.5 µM); against Acinetobacter baumannii it was 32 µg/mL (≈ 87.9 µM); in the series with Escherichia coli [4], 32 µg/mL (≈ 87.9 µM). The CC50 at 72 h in series [5] (L5178Y cells (TK +/-)) was 3 µg/mL (≈ 8.25 µM). The pIC50 on DNA gyrase was 5.80.
Regarding `N=C(N)NC[C@H](Oc1noc2ccc(-c3ccccc3Cl)cc12)c1ccccc1`, the MIC came to 0.25 µg/mL (≈ 0.614 µM) in the series on Escherichia coli [1]; 0.25 µg/mL (≈ 0.614 µM) in the series with Escherichia coli [2]; 16 µg/mL (≈ 39.3 µM) against Klebsiella pneumoniae; 0.5 µg/mL (≈ 1.23 µM) in the series on Escherichia coli [3]; 16 µg/mL (≈ 39.3 µM) in the series with Pseudomonas aeruginosa; 4 µg/mL (≈ 9.83 µM) in the series with Acinetobacter baumannii. The MIC with Escherichia coli [4] was found to be 8 µg/mL (≈ 19.7 µM). Moreover, in series [5] (l5178y), the CC50 at 72 h was 11 µg/mL (≈ 27 µM). The negative-log IC50 (pIC50) at DNA gyrase was 6.80.
`Cn1nc(O[C@@H](CN)c2ccccc2)c2cc(-c3ccccc3Cl)ccc21`: the MIC against Escherichia coli [1] was 2 µg/mL (≈ 5.29 µM); in the series on Escherichia coli [2] it was 2 µg/mL (≈ 5.29 µM); in the series on Klebsiella pneumoniae, > 128 µg/mL; in the series on Escherichia coli [3], 2 µg/mL (≈ 5.29 µM); with Acinetobacter baumannii it was 64 µg/mL (≈ 169 µM); against Escherichia coli [4], > 128 µg/mL. Also, on DNA gyrase, the pIC50 is 5.30.
Consider `NC[C@H](Oc1noc2ccc(-c3ccccc3Cl)nc12)c1ccccc1`, for which the MIC is 4 µg/mL (≈ 10.9 µM) against Escherichia coli [1]; 8 µg/mL (≈ 21.9 µM) against Escherichia coli [2]; 16 µg/mL (≈ 43.7 µM) in the series with Escherichia coli [3]; > 128 µg/mL against Acinetobacter baumannii; > 128 µg/mL with Escherichia coli [4]. For the same molecule, the figures for the pIC50 (in series [6]; on DNA gyrase) were 4.80 and 5.80, respectively. Also, the CC50 at 72 h in series [5] (l5178y) turned out to be 5 µg/mL (≈ 13.7 µM).
Turning to `NCC(Oc1noc2ccc(-c3ccccc3Cl)cc12)c1ccccn1` (configuration not stated), the MIC against Escherichia coli [1] stood at 0.25 µg/mL (≈ 0.683 µM); against Escherichia coli [2] it was 0.25 µg/mL (≈ 0.683 µM); against Escherichia coli [3] it was 8 µg/mL (≈ 21.9 µM); in the series with Acinetobacter baumannii, 32 µg/mL (≈ 87.5 µM); against Escherichia coli [4] it was 64 µg/mL (≈ 175 µM). Moreover, in [5] (L5178Y cells (TK +/-)), the CC50 at 72 h is 3 µg/mL (≈ 8.2 µM). At DNA gyrase, the pIC50 is 6.30.
Regarding `NC[C@H](Oc1noc2ccc(-c3ccccc3Cl)cc12)c1ccccc1`, the pIC50 in [7] was 3.68; in series [6], 4.66; in series [8], 4.05; at DNA gyrase, 6.80. The MIC was ≤ 0.125 µg/mL in the series with Escherichia coli [1]; ≤ 0.125 µg/mL in the series on Escherichia coli [2]; ≥ 128 µg/mL against Klebsiella pneumoniae; 2 µg/mL (≈ 5.48 µM) against Escherichia coli [3]; ≥ 128 µg/mL in the series on Pseudomonas aeruginosa; 8 µg/mL (≈ 21.9 µM) with Acinetobacter baumannii. In addition, the MIC against Escherichia coli [4] was in the range of 8 to 16 µg/mL (≈ 21.9 to 43.9 µM). Further, the inhibition entry (in series [9]; in the series with Escherichia coli [10]) was “Active” each time. In addition, the CC50 at 72 h in series [5] (l5178y) turned out to be 10 µg/mL (≈ 27.4 µM).
In the case of `Cn1nc(NC(CN)c2ccccc2)c2cc(-c3ccccc3Cl)ccc21` (configuration not stated), the MIC against Escherichia coli [1] is 4 µg/mL (≈ 10.6 µM); against Escherichia coli [2] it was 4 µg/mL (≈ 10.6 µM); against Klebsiella pneumoniae it was > 128 µg/mL; with Escherichia coli [3], 4 µg/mL (≈ 10.6 µM); in the series on Acinetobacter baumannii it was 128 µg/mL (≈ 340 µM); against Escherichia coli [4] it was > 128 µg/mL. Also, the CC50 at 72 h in [5] (L5178Y cells (TK +/-)) is 5 µg/mL (≈ 13.3 µM). On DNA gyrase, the pIC50 was 5.10.
In the case of `NC[C@H](Oc1noc2ncc(-c3ccccc3Cl)cc12)c1ccccc1`, the MIC in the series with Escherichia coli [1] was 1 µg/mL (≈ 2.73 µM); against Escherichia coli [2] it was 1 µg/mL (≈ 2.73 µM); against Escherichia coli [3], 16 µg/mL (≈ 43.7 µM); with Acinetobacter baumannii, 64 µg/mL (≈ 175 µM); against Escherichia coli [4] it was 64 µg/mL (≈ 175 µM). The pIC50 was 4.62 in series [6] and 6.30 at DNA gyrase. Besides, the CC50 at 72 h in series [5] (L5178Y cells (TK +/-)) was 20 µg/mL (≈ 54.7 µM).
